The subject of test [1] is Dyrk1a cHets. Kind of test: Chronic (1-3)IGF-1 treatment from P14: behavioral battery. It is filed as in vivo, mouse. From the text:
To determine whether chronic (1-3)IGF-1 administration ameliorates ASD-relevant behaviors, we conducted a behavioral battery to assay sociability and repetitive behaviors as well as locomotion, anxiety-like behavior, acoustic startle, and sensorimotor gating. […] Taken together, (1-3)IGF-1 treatment ameliorates morphological, neuronal, and behavioral deficits caused by cortical Dyrk1a mutations.
(§1) (1-3)IGF-1 was acquired from VWR/Bachem (catalog #H-2468.1000) and dissolved in saline with 0.01% BSA fresh every day. Intraperitoneal injections of 10 mg kg′ (1-3)IGF-1 or vehicle were delivered daily at 8 a.m. starting on P14 and ending on P85. […] The S6K1 inhibitor PF-4708671 was acquired from Medkoo Biosciences (#406432) dissolved in 10% DMSO, 10% tween 80 and 80% water. (1-3)IGF-1 (10 mg kg′) and PF-4708671 (50 mg kg^−1) or vehicle were injected subcutaneously into pups from P0 to P7. Rapamycin was acquired from LC laboratories (R-5000) and dissolved in 4% ethanol, 5% tween-80, and 5% PEG400 in PBS. (1-3)IGF-1 (10 mg kg′) and Rapamycin (1 mg kg′) or vehicle were injected subcutaneously into pups from P0 to P7. SB216763 was acquired from TOCRIS (#1616) and dissolved in 5% DMSO and 0.9% saline in dH20. SB216763 (0.5 mg kg′) was injected subcutaneously into pups from P0 to P7.
3 chamber social approach: Briefly, after at least 2 weeks housing under reversed light cycle, each mouse was habituated in the three-chamber box for 5 minutes before a stimulus mouse was placed into a tube in the “social” chamber. The stimulus mice used were young adult male mice. The time spent in each chamber (“mouse+tube”, “empty tube”, “center”) was hand-scored for sniffing time using Boris.
Marble burying: Male mice were placed individually in a cage with 5 cm of ¼″ corncob bedding and 20 black marbles (14.3 mm in diameter) arranged in a 4×5 matrix and left undisturbed for 30 min. The number of marbles that were at least two-thirds buried at the end of the trial were counted. […]

Test [2] concerns protein synthesis in the mPFC of cHets. Kind of test: SUnSET puromycin incorporation assay (protein synthesis) in mPFC after (1-3)IGF-1 treatment. It is filed as in vivo, mouse. On the procedure:
Protein synthesis is a critical output of mTOR signaling, particularly downstream of P70 Ribosomal S6 Kinase (S6K1).
as §1
300 μm coronal prefrontal cortical slices were obtained from postnatal day 7 (P7) and adult mice. Slices were allowed to recover in artificial cerebrospinal fluid (in mM: 124 NaCl, 2.8 KCl, 2 CaCl2, 1.25 NaH2P04, 1.25 MgSO4, 26 NaHCO3, 10 Dextrose) for 2 h at 32° C. Puromycin (5 μg ml-1) was applied to slices for 40 min at 32° C. to label newly synthesized proteins. Slices were then snap frozen on dry ice and stored at −80° C. until used. Protein (50 μg) was loaded on 4-12% gradient gels, transferred onto polyvinylidene difluoride membranes, and probed with anti-puromycin antibody (1:5,000, Millipore, MABE343). Anti-mouse HRP-tagged secondary antibody was used and chemiluminiscence was developed using standard ECL reagents. Quantification was done by measuring intensity of each lane from 14 to 191 kDa, subtracting it from the intensity of the unlabeled lane and normalized to loading control.

[3] abbreviates: 3-chamber social approach, cHets.

Entries after “also recorded” stand apart in the source; their conditions may differ.

Regarding “(1-3)IGF-1: a tripeptide cleaved from the N-terminus of IGF-1; acquired from VWR/Bachem, CAS No. 32302-76-4 (GPE; Insulin-like growth factor 1; UniProt P05019 49-51, looked up, fragment)”, in test [1] (setting [3]), the preference index result is on record as “restored” and the “social interaction time (hand-scored)” value is “increased”. In test [1] (3-chamber social approach, cHets, daily from P14), the “social deficit of cHets (time interacting with stimulus mouse, preference index)” value was “restored this social deficit in cHets”. Besides, in test [1] (3-chamber social approach, controls), the sociability of controls entry is on record as “did not impact controls”. In addition, the “preference for stimulus mouse vs inanimate object within group, 3-chamber social approach” value in test [1] (all genotype X treatment groups) is listed as “significant preference for interaction with a stimulus mouse; also recorded: significant preference for social interaction”. In addition, in test [1] (marble burying, cHets), the “number of marbles buried by cHets” value is given as “no effect; also recorded: subtle modification of the phenotype” and the “qualitative interaction with the marbles” value is “qualitatively interaction with the marbles increased in cHets”. Further, the “puromycin incorporation (protein synthesis) in adult cHets” value in test [2] (adult, chronic treatment) is “significantly increased; also recorded: restores decreased protein synthesis”. The “puromycin incorporation in adult controls” value in test [2] (adult, relative to vehicle-treated controls) is “significant decrease in puromycin incorporation”. Besides, in test [2] (daily treatment from P0 to P7), the “puromycin incorporation (protein synthesis) in neonatal cHets” value was “increased puromycin abundance; also recorded: restores decreased protein synthesis” and the “puromycin incorporation in neonatal controls” value was “without impacting controls”.

The values above are taken from patent US20240148835A1, “TREATING DISORDERS ASSOCIATED WITH DYRK1A DYSFUNCTION” (UNIVERSITY OF FLORIDA RESEARCH FOUNDATION, INCORPORATED, priority 2021, published 2024).
